Values of other authors in patent US20080193567A1, “Pharmaceutical Canscora Diffusa-Containing Composition” (priority 2004, published 2008).

What was measured:
[1] = interpreted as an effect against stress and anxiety
[2] = test system: Mycobacterium tuberculosis
[3] = animal experiments

| Compound | adaptogenic effect [1] | effect against Mycobacterium tuberculosis [2] | spermicidal effect [3] |
| --- | --- | --- | --- |
| COc1ccc([C@@H]2CCc3c(O[C@@H]4OC(CO)[C@@H](O)[C@H](O)C4O)cc(OC)cc3O2)cc1 (some centres unmarked) [dichotosin] | “adaptogenic” effect | – | – |
| COc1ccc([C@@H]2CCc3c(O[C@@H]4O[C@H](CO)[C@@H](O)[C@H](O)[C@H]4O)cc(O)cc3O2)cc1OC [Diffutin] | “adaptogenic” effect | – | – |
| O=c1c2cc(O)c(O)cc2oc2cc(O)c([C@@H]3O[C@H](CO)[C@@H](O)[C@H](O)[C@H]3O)c(O)c12 [magniferin] | – | small effect | spermicidal effect |
| dichotosinin | “adaptogenic” effect | – | – |
